Experiments:
Hepatocyte = assay: Inhibition of lipid synthesis in primary rat hepatocytes by incorporation radiolabeled acetate into cellular lipids; format: functional, cell-based, Sprague-Dawley
Rattus norvegicus [1] = assay: Activity against high density lipoprotein cholesterol level in obese female Zucker rat serum after 1 week at 30 mg/kg (percent change from pre-treatment); format: functional
Rattus norvegicus [2] = assay: Activity against non high density lipoprotein cholesterol level in obese female Zucker rat serum after 1 week at 30 mg/kg (percent change from pre-treatment); format: functional
Rattus norvegicus [3] = assay: Activity against non high density lipoprotein cholesterol level in obese female Zucker rat serum after 2 weeks at 30 mg/kg (percent change from pre-treatment); format: functional
Rattus norvegicus [4] = assay: Activity against triglyceride level in obese female Zucker rat serum after 1 week at 30 mg/kg (percent change from pre-treatment); format: functional
Rattus norvegicus [5] = assay: Activity against high density lipoprotein cholesterol level in obese female Zucker rat serum after 2 weeks at 30 mg/kg (percent change from pre-treatment); format: functional
Rattus norvegicus [6] = assay: Activity against triglyceride level in obese female Zucker rat serum after 2 weeks at 30 mg/kg (percent change from pre-treatment); format: functional
Rattus norvegicus [7] = assay: Activity against high density lipoprotein cholesterol level in obese female Zucker rat serum after 2 weeks at 100 mg/kg (percent change from pre-treatment); format: functional
Rattus norvegicus [8] = assay: Activity against triglyceride level in obese female Zucker rat serum after 1 week at 100 mg/kg (percent change from pre-treatment); format: functional
Rattus norvegicus [9] = assay: Activity against non high density lipoprotein cholesterol level in obese female Zucker rat serum after 2 weeks at 100 mg/kg (percent change from pre-treatment); format: functional
Rattus norvegicus [10] = assay: Activity against high density lipoprotein cholesterol level in obese female Zucker rat serum after 1 week at 100 mg/kg (percent change from pre-treatment); format: functional
Rattus norvegicus [11] = assay: Activity against non high density lipoprotein cholesterol level in obese female Zucker rat serum after 1 week at 100 mg/kg (percent change from pre-treatment); format: functional
Rattus norvegicus [12] = assay: Activity against triglyceride level in obese female Zucker rat serum after 2 weeks at 100 mg/kg (percent change from pre-treatment); format: functional
Rattus norvegicus [13] = assay: Activity against non high density lipoprotein cholesterol level in obese female Zucker rat serum after 1 week at 53 mg/kg (percent change from pre-treatment); format: functional
Rattus norvegicus [14] = assay: Activity against non high density lipoprotein cholesterol level in obese female Zucker rat serum after 2 weeks at 53 mg/kg (percent change from pre-treatment); format: functional
Rattus norvegicus [15] = assay: Activity against high density lipoprotein cholesterol level in obese female Zucker rat serum after 1 week at 53 mg/kg (percent change from pre-treatment); format: functional
Rattus norvegicus [16] = assay: Activity against triglyceride level in obese female Zucker rat serum after 1 week at 53 mg/kg (percent change from pre-treatment); format: functional
Rattus norvegicus [17] = assay: Activity against high density lipoprotein cholesterol level in obese female Zucker rat serum after 2 weeks at 53 mg/kg (percent change from pre-treatment); format: functional
Rattus norvegicus [18] = assay: Activity against triglyceride level in obese female Zucker rat serum after 2 weeks at 53 mg/kg (percent change from pre-treatment); format: functional
Rattus norvegicus [19] = assay: Activity against non high density lipoprotein cholesterol level in obese female Zucker rat serum after 1 week at 80 mg/kg (percent change from pre-treatment); format: functional
Rattus norvegicus [20] = assay: Activity against triglyceride level in obese female Zucker rat serum after 2 weeks at 80 mg/kg (percent change from pre-treatment); format: functional
Rattus norvegicus [21] = assay: Activity against triglyceride level in obese female Zucker rat serum after 1 week at 80 mg/kg (percent change from pre-treatment); format: functional
Rattus norvegicus [22] = assay: Activity against non high density lipoprotein cholesterol level in obese female Zucker rat serum after 2 weeks at 80 mg/kg (percent change from pre-treatment); format: functional
Rattus norvegicus [23] = assay: Activity against high density lipoprotein cholesterol level in obese female Zucker rat serum after 1 week at 80 mg/kg (percent change from pre-treatment); format: functional
Rattus norvegicus [24] = assay: Activity against high density lipoprotein cholesterol level in obese female Zucker rat serum after 2 weeks at 80 mg/kg (percent change from pre-treatment); format: functional
Rattus norvegicus [25] = assay: Tolerability of compound upto 2000 mg/kg; format: organism-based; set-up: dose 2000 mg/kg; conditions: in vivo
[26] = Rattus norvegicus, Sprague-Dawley, Hepatocyte, read-out: IC50

CC(C)(CO)CCCSCCCC(C)(C)CO
IC50 (Hepatocyte; [26]): 15 µM | Activity (Rattus norvegicus [1]): 54% | Activity (Rattus norvegicus [2]): -40% | Activity (Rattus norvegicus [3]): -14% | Activity (Rattus norvegicus [4]): -51% | Activity (Rattus norvegicus [5]): 40% | Activity (Rattus norvegicus [6]): -34%

CC(C)(CO)CCCCOC(=O)CCCCC(C)(C)CO
Activity (Rattus norvegicus [7]): 23% | IC50 (Hepatocyte; [26]): 13 µM | Activity (Rattus norvegicus [8]): -20% | Activity (Rattus norvegicus [9]): -5% | Activity (Rattus norvegicus [10]): 18% | Activity (Rattus norvegicus [11]): -25% | Activity (Rattus norvegicus [12]): 7%

CC(C)(CO)CCCCNC(=O)CCCCC(C)(C)CO
IC50 (Hepatocyte; hepatocyte): Not Active | Activity (Rattus norvegicus [1]): 2% | Activity (Rattus norvegicus [2]): -21% | Activity (Rattus norvegicus [3]): -7% | Activity (Rattus norvegicus [4]): -20% | Activity (Rattus norvegicus [5]): 20% | Activity (Rattus norvegicus [6]): -10%

CC(C)(CO)CCCCC(O)CCCCC(C)(C)CO
Activity (Rattus norvegicus [7]): 222% | IC50 (Hepatocyte; [26]): 6.4 µM | Activity (Rattus norvegicus [8]): -70% | Activity (Rattus norvegicus [9]): -15% | Activity (Rattus norvegicus [10]): 219% | Activity (Rattus norvegicus [11]): -61% | Activity (Rattus norvegicus [12]): -46%

CC(C)(CO)CCCCNCCCCC(C)(C)CO
Activity (Rattus norvegicus [13]): 78% | Activity (Rattus norvegicus [14]): -10% | IC50 (Hepatocyte; hepatocyte): Not Active | Activity (Rattus norvegicus [15]): -23% | Activity (Rattus norvegicus [16]): -24% | Activity (Rattus norvegicus [17]): 16% | Activity (Rattus norvegicus [18]): -32%

CC(C)(CO)CCCCNC(=O)OCCCCC(C)(C)CO
Activity (Rattus norvegicus [7]): 65% | IC50 (Hepatocyte; [26]): 0.8 µM | Activity (Rattus norvegicus [8]): -52% | Activity (Rattus norvegicus [9]): 84% | Activity (Rattus norvegicus [10]): 60% | Activity (Rattus norvegicus [11]): 10% | Activity (Rattus norvegicus [12]): -4%

CC(C)(CO)CCCCNC(=O)NCCCCC(C)(C)CO
Activity (Rattus norvegicus [7]): 92% | IC50 (Hepatocyte; [26]): 3.4 µM | Activity (Rattus norvegicus [8]): -42% | Activity (Rattus norvegicus [9]): -5% | Activity (Rattus norvegicus [10]): 66% | Activity (Rattus norvegicus [11]): -33% | Activity (Rattus norvegicus [12]): -31%

CC(C)(CO)CCCCOP(=O)(O)OCCCCC(C)(C)CO
Activity (Rattus norvegicus [19]): -29% | Activity (Rattus norvegicus [20]): -13% | IC50 (Hepatocyte; hepatocyte): Not Active | Activity (Rattus norvegicus [21]): -10% | Activity (Rattus norvegicus [22]): -17% | Activity (Rattus norvegicus [23]): 27% | Activity (Rattus norvegicus [24]): 8%

CC(CO)(CCCSCCCC(C)(CO)c1ccccc1)c1ccccc1 (stereo not given)
Activity (Rattus norvegicus [7]): 2% | IC50 (Hepatocyte; [26]): 41 µM | Activity (Rattus norvegicus [8]): -18% | Activity (Rattus norvegicus [9]): 8% | Activity (Rattus norvegicus [10]): 9% | Activity (Rattus norvegicus [11]): -26% | Activity (Rattus norvegicus [12]): 1%

CC(C)(CCCCCC(=O)CCCCCC(C)(C)C(=O)O)C(=O)O
Activity (Rattus norvegicus [7]): 168% | Activity (Rattus norvegicus [8]): -93% | Activity (Rattus norvegicus [9]): -99% | Activity (Rattus norvegicus [10]): 72% | Activity (Rattus norvegicus [11]): -98% | Activity (Rattus norvegicus [12]): -94%

CC(C)(CO)CCCCS(=O)(=O)CCCCC(C)(C)CO
Activity (Rattus norvegicus [7]): -13% | IC50 (Hepatocyte; [26]): 8.9 µM | Activity (Rattus norvegicus [8]): -34% | Activity (Rattus norvegicus [9]): -34% | Activity (Rattus norvegicus [10]): 15% | Activity (Rattus norvegicus [11]): -46% | Activity (Rattus norvegicus [12]): -19%

CC(C)(CO)CCCCN(O)CCCCC(C)(C)CO
IC50 (Hepatocyte; [26]): 63 µM | Activity (Rattus norvegicus [1]): 27% | Activity (Rattus norvegicus [2]): -40% | Activity (Rattus norvegicus [3]): -5% | Activity (Rattus norvegicus [4]): -26% | Activity (Rattus norvegicus [5]): 19% | Activity (Rattus norvegicus [6]): 13%

CC(C)(CO)CCCCC(CO)CCCCC(C)(C)CO
Activity (Rattus norvegicus [7]): -2% | IC50 (Hepatocyte; [26]): 15 µM | Activity (Rattus norvegicus [8]): -52% | Activity (Rattus norvegicus [9]): -12% | Activity (Rattus norvegicus [10]): 2% | Activity (Rattus norvegicus [11]): -43% | Activity (Rattus norvegicus [12]): -23%

CC(C)(CO)CCC[S+]([O-])CCCC(C)(C)CO
Activity (Rattus norvegicus [7]): 93% | IC50 (Hepatocyte; hepatocyte): Not Active | Activity (Rattus norvegicus [8]): -36% | Activity (Rattus norvegicus [9]): 12% | Activity (Rattus norvegicus [10]): 54% | Activity (Rattus norvegicus [11]): 40% | Activity (Rattus norvegicus [12]): -5%

CC(C)(CO)CCCCCCCCCC(C)(C)CO
Activity (Rattus norvegicus [7]): 137% | Activity (Rattus norvegicus [8]): -83% | Activity (Rattus norvegicus [9]): -75% | Activity (Rattus norvegicus [10]): 189% | Activity (Rattus norvegicus [11]): -67% | Activity (Rattus norvegicus [12]): -82%

CC(C)(CO)CCCCOCCCCC(C)(C)CO
Activity (Rattus norvegicus [7]): 366% | IC50 (Hepatocyte; [26]): 10.7 µM | Activity (Rattus norvegicus [8]): -77% | Activity (Rattus norvegicus [25]): Active | Activity (Rattus norvegicus [9]): 11% | Activity (Rattus norvegicus [10]): 234% | Activity (Rattus norvegicus [11]): -38% | Activity (Rattus norvegicus [12]): -71%

CC(CO)(CCCCSCCCCC(C)(CO)c1ccccc1)c1ccccc1 (stereo not given)
IC50 (Hepatocyte; [26]): 64 µM

CC(=O)C(CCCCC(C)(C)CO)CCCCC(C)(C)CO
IC50 (Hepatocyte; [26]): 46 µM | Activity (Rattus norvegicus [1]): -14% | Activity (Rattus norvegicus [2]): 15% | Activity (Rattus norvegicus [3]): 52% | Activity (Rattus norvegicus [4]): -6% | Activity (Rattus norvegicus [5]): -19% | Activity (Rattus norvegicus [6]): 22%

CC(C)(CO)CCCC[S+]([O-])CCCCC(C)(C)CO
Activity (Rattus norvegicus [7]): 233% | IC50 (Hepatocyte; hepatocyte): Not Active | Activity (Rattus norvegicus [8]): -37% | Activity (Rattus norvegicus [9]): 64% | Activity (Rattus norvegicus [10]): 127% | Activity (Rattus norvegicus [11]): 56% | Activity (Rattus norvegicus [12]): -35%

CC(CCCCSCCCCC(C)(C(=O)O)c1ccccc1)(C(=O)O)c1ccccc1 (stereo not given)
IC50 (Hepatocyte; [26]): 26 µM

CC(CO)(CCC[S+]([O-])CCCC(C)(CO)c1ccccc1)c1ccccc1 (stereo not given)
Activity (Rattus norvegicus [19]): 68% | Activity (Rattus norvegicus [20]): 41% | IC50 (Hepatocyte; hepatocyte): Not Active | Activity (Rattus norvegicus [21]): 18% | Activity (Rattus norvegicus [22]): 81% | Activity (Rattus norvegicus [23]): -23% | Activity (Rattus norvegicus [24]): -36%

CC(CO)(CCCC[S+]([O-])CCCCC(C)(CO)c1ccccc1)c1ccccc1 (stereo not given)
IC50 (Hepatocyte; [26]): 81 µM

From ChEMBL document CHEMBL1148579, “Influence of various central moieties on the hypolipidemic properties of long hydrocarbon chain diols and diacids” (J Med Chem, 2006)
